Assay results published in patent publication EP0022634A1, “Acylated indole derivatives, processes for their preparation and pharmaceutical compositions and drugs comprising them” (TEIJIN LIMITED, priority 1979, dated 1981).
Values after ≈ are worked out from the molar mass of the structure shown. Where two headings read alike, the source gives them in different places.

Assays:
[1] = tested on: platelet aggregation; test: in vitro platelet aggregation inhibiting activity (sodium arachidonate as aggregating agent); assay type: cell-based; details: guinea pigs PRP, final concentration 0.1 millimole, minimum final concentration whose inhibiting rate exceeded 50 %
Procedure: The platelet aggregation inhibiting activities in vitro of test drugs including the acylated indole derivatives of this invention were assayed using guinea pigs PRP.
As an aggregating agent, sodium arachidonate having a final concentration of 0.1 millimole was used.
The citrated blood was centrifuged at 1000 rpm for 10 minutes at room temperature, and the supernatant liquid (PRP) was separated.
The resulting PRP was stored at room temperature, and used as early as possible. PRP stored for more than 4 hours was not used.
A compound having a free carboxylic acid as a residue, such as Indomethacin and Ibprofen, was dissolved in O.lM NaHC03 to provide a sodium salt solution having a concentration of 10 mg/ml. The solution was similarly diluted with physiological saline to prepare a solution of a test drug.
The solution was diluted with physiological saline to form a 1mM solution which was used in the test.
50 µℓ of physiological saline and 50 µℓ of the aggregating agent solution were added to 400 µℓ of PRP which had been warmed in a cuvette at 37°C in an aggregometer to aggregate the platelet. The aggregation curve was recorded for 3 minutes by an aggregometer (a product of Bryston Company). The maximum degree of aggregation in this platelet aggregation was defined as the maximum degree of aggregation in the blank.
Then, 50 µℓ of a 1mM solution of sodium arachidonate was added, and the platelet aggregation curve was recorded in the same way as in (1) above. From the curve, the maximum degree of aggregation was calculated, and the inhibiting rate was calculated in accordance with the following equation. Maximum degree of aggregation Inhibiting 100 - in the Ibprofen-added system 100 rate (%) Maximum degree of aggregation in the blank
If these inhibiting rates are not attained, the concentration of the solution of sodium arachidonate is not suitable, and therefore, its concentration should be re-adjusted, and the test shall be performed again.
50 µℓ of the test compound solution was added to 400 µℓ of PRP, and the mixture was pre-incubated in the same way as in(2) above. Then, 50 µℓ of the solution of sodium arachidonate having its concentration adjusted in (2) was added, and the aggregation curve was recorded for 3 minutes. The maximum degree of aggregation of platelet within this period was measured, and the rate of inhibition was calculated from the following equation. […] Maximum degree of aggregation Inhibiting _ 100 - in the drug-added system x 100 rate (%) Maximum degree of aggregation in the blank
For details of the in vitro platelet aggregation inhibiting test, see H. M. Davis, J. Phyllis, K. Paul and W. Terry: Thromb. […] Haemos.

[2] = tested on: platelet aggregation; test: extra vivo platelet aggregation inhibiting activity after oral administration, sodium arachidonate as aggregating agent; assay type: in vivo, guinea pigs; details: Cavia porcellus, 0.03 mM sodium arachidonate; for inhibition at 10 mg/kg: oral dosage 10 mg/kg; for inhibition at 1 mg/kg: oral dosage 1 mg/kg
Procedure: (§1) The platelet aggregation inhibiting activities extra vivo of drugs sampled at random were examined using guinea pigs.
(§2) The drugs were used dissolved in propylene glycol to a concentration of 1 mg/ml (when the dosage was 1 mg/kg), 10 mg/ml (when the dosage was 10 mg/kg), and 30 mg/ml (when the dosage was 30 mg/kg). The drugs were administered orally to male Hartley guinea pigs (three in a group) having a body weight of 300 to 350 g. Propylene glycol was administered to a control group.
(§3) One hour, or 4 hours after the administration, citrated blood was taken out from the subject by cardiac puncture.
(§4) The guinea pigs were caused to fast overnight before use.
(§5) The inhibiting rate of the test drugs was measured as follows: • 450 µℓ of PRP was put into a cuvette of an aggregometer, and then 50 µℓ of the aggregating agent was added. The aggregation curve was recorded for 3 minutes, and the maximum degree of aggregation was measured. As a blank, the maximum degree of aggregation of PRP of the group of guinea pigs to which propylene glycol had been administered was measured. The rate of inhibition was calculated from the following equation. [formula]
(§6) As the aggregating agent, 0.03 mM (final concentration sodium arachidonate and 5 µg/ml (final concentration) collagen floating solution were used.
For details of the extra vivo platelet aggregation inhibiting test, see Davis. H. M., Phyllis, J., Paul, K and Terry, W.: Thromb. […] Haemos.

[3] = tested on: platelet aggregation; test: extra vivo platelet aggregation inhibiting activity after oral administration, collagen as aggregating agent; assay type: in vivo, guinea pigs; details: Cavia porcellus
Procedure: The collagent floating solution made by Hormone Company of west Germany was diluted with physiological saline to a concentration of 100 µg/ml for use in the test.
as §1, §2, §3, §4, §5, §6
For details of the extra vivo platelet aggregation inhibiting test, see Davis. H. M., Phyllis, J., Paul, K and Terry, W.: Thromb. Res. 11, 217-226 (1977) and Anderson R. E. and Foulks J. G.: Thromb. Haemos. 36, 343-359 (1976).

[4] = Cavia porcellus, Platelet, read-out: IC50
[5] = blood taken 1 hour after administration, read-out: Rate of inhibition of platelet aggregation, Sodium arachidonate, After 1 hour
[6] = blood taken 4 hours after administration, read-out: Rate of inhibition of platelet aggregation, Sodium arachidonate, After 4 hours
[7] = po, 1 h, read-out: Rate of inhibition of platelet aggregation, Collagen, After 1 hour
[8] = po, 4 h, read-out: Rate of inhibition of platelet aggregation, Collagen, After 4 hours

| Compound | IC50 [1, 4] [µg/mL] | inhibition at 10 mg/kg [2, 5] [%] | inhibition at 10 mg/kg [2, 6] [%] | inhibition at 10 mg/kg [3, 7] [%] | inhibition at 10 mg/kg [3, 8] [%] | also measured |
| --- | --- | --- | --- | --- | --- | --- |
| CCC(CO)n1c(C)c(C(=O)c2ccccc2)c2ccccc21 (stereo not shown) [(101), 3-Benzoyl-1-(1-hydroxy-2-butyl)-2-methylindole] | 0.1 (≈ 0.325 µM) | 99 | 99 | 100 | 100 | – |
| Cc1c(C(=O)c2ccccc2)c2ccccc2n1C(C)CCO (stereo not drawn) [(105), 3-Benzoyl-l-(4-hydroxy-2-butyl)-2-methylindole] | 0.075 (≈ 0.244 µM) | 100 | 100 | 100 | 100 | – |
| COc1ccc2c(c1)c(C(=O)c1ccccc1)c(C)n2C(C)CO (stereo not shown) [(116), 3-benzoyl-1-(1-hydroxy-2-propyl)-5-methoxy-2-methylindole] | 0.5 (≈ 1.55 µM) | 100 | 0.7 | 100 | 0 | – |
| Cc1c(C(=O)c2ccccc2)c2cc(O)ccc2n1C(C)CO (stereo not shown) [(117), 3-Benzoyl-5-hydroxy-1-(1-hydroxy-2-propyl)-2-methylindole] | 0.25 (≈ 0.808 µM) | 100 | 8.6 | 72.1 | 2.2 | – |
| Cc1c(C(=O)c2ccccc2)c2ccccc2n1[C@H](C)CO [(135), 3-Benzoyl-1-[1-hydroxy-2(R)-propyl]-2-methylindole] | 0.025 (≈ 0.0852 µM) | – | – | – | – | – |
| Cc1c(C(=O)c2ccccc2)c2ccccc2n1[C@@H](C)CO [(136), 3-Benzoyl-1-(1-hydroxy-2(S)-propyl]-2-methylindole] | 0.05 (≈ 0.17 µM) | – | – | – | – | – |
| CC(=O)OCC(C)n1c(C)c(C(=O)c2ccccc2)c2ccccc21 (stereo not shown) [(200), 1-(1-Acetoxy-2-propyl)-3-benzoyl-2-methylindole] | 0.075 (≈ 0.224 µM) | – | – | – | – | inhibition at 1 mg/kg [2, 5]: 90%; inhibition at 1 mg/kg [2, 6]: 91.8% |
| CC(=O)OCCC(C)n1c(C)c(C(=O)c2ccccc2)c2ccccc21 (stereo not shown) [(201), 1-(4-acetoxy-2-butyl)-3-benzoyl-2-methylindole] | 0.075 (≈ 0.215 µM) | 100 | 100 | 100 | 100 | – |
| CCC(COC(C)=O)n1c(C)c(C(=O)c2ccccc2)c2ccccc21 (stereo not shown) [(205), 1-(1-acetoxy-2-butyl)-3-benzoyl-2-methylindole] | 0.1 (≈ 0.286 µM) | 100 | 85.3 | 100 | 93.8 | – |
| COCCC(C)n1c(C)c(C(=O)c2ccccc2)c2ccccc21 (stereo not shown) [(306), 3-Benzoyl-1-(4-methoxy-2-butyl)-2-methylindole] | 0.25 (≈ 0.778 µM) | 100 | 100 | 100 | 100 | – |
| CCOCCC(C)n1c(C)c(C(=O)c2ccccc2)c2ccccc21 (stereo not shown) [(307), 3-Benzoyl-1-(4-ethoxy-2-butyl)-2-methylindole] | 0.25 (≈ 0.745 µM) | 100 | 100 | 98.3 | 100 | – |
| CCC(COC)n1c(C)c(C(=O)c2ccccc2)c2ccccc21 (stereo not shown) [(311), 3-Benzoyl-1-(1-methoxy-2-butyl)-2-methylindole] | 0.25 (≈ 0.778 µM) | 68.8 | 100 | 100 | 81.1 | – |
| CCOCC(CC)n1c(C)c(C(=O)c2ccccc2)c2ccccc21 (stereo not shown) [(312), 3-Benzoyl-1-(1-ethoxy-2-butyl)-2-methylindole] | 0.25 (≈ 0.745 µM) | 100 | 100 | 100 | 100 | – |
| COCC(C)n1c(C)c(C(=O)c2cccs2)c2ccccc21 (stereo not shown) [(315), 1-(1-Methoxy-2-propyl)-2-methyl-3-thenoylindole] | – | – | – | – | – | IC50 [1]: 0.01 to 0.1 µg/mL |
| COC[C@@H](C)n1c(C)c(C(=O)c2ccccc2)c2ccccc21 [(346), 3-Benzoyl-1-[1-methoxy-2(R)-propyl]-2-methylindole] | 0.05 (≈ 0.163 µM) | – | – | – | – | – |
| COC[C@H](C)n1c(C)c(C(=O)c2ccccc2)c2ccccc21 [(347), 3-benzoyl-1-[1-methoxy-2(S)-propyl)-2-methylindole] | 0.075 (≈ 0.244 µM) | – | – | – | – | – |
| CSCC(C)n1c(C)c(C(=O)c2ccccc2)c2ccccc21 (stereo not shown) [(402), 3-Benzoyl-2-methyl-1-(1-methylthio-2-propyl)-indole] | 0.075 (≈ 0.232 µM) | – | – | – | – | – |
| Cc1c(C(=O)c2ccccc2)c2ccccc2n1C(C)CCSc1ccccn1 (stereo not drawn) [(414), 3-Benzoyl-2-methyl-l-(4-(2-pyridylthio)-2-butyl]indole] | – | 100 | 100 | – | – | – |
| CCSCC(CC)n1c(C)c(C(=O)c2ccccc2)c2ccccc21 (stereo not shown) [(417), 3-Benzoyl-1-(1-ethylthio-2-butyl)-2-methylindole] | – | 100 | 37 | 100 | 100 | – |
| Cc1c(C(=O)c2ccccc2)c2ccccc2n1C(C)CCS (stereo not shown) [(423), 3-Benzoyl-1-(4-mercapto-2-butyl)-2-methylindole] | – | 100 | 100 | 100 | 100 | – |
| Cc1c(C(=O)c2ccccc2)c2ccccc2n1C(C)C[S+]([O-])c1ccccc1 (stereo not shown) [(501), 1-(1-Benzenesulfinyl-2-propyl)-3-benzoyl-2-methylindole] | – | 100 | 100 | 100 | 100 | – |
| CCC(C)n1c(C)c(C(=O)c2ccccc2)c2ccccc21 (stereo not shown) [(701), 3-Benzoyl-1-(2-butyl)-2-methylindole] | – | 100 | 100 | – | – | – |
| Cc1c(C(=O)c2ccccc2)c2ccccc2n1C(C)C(=O)O (stereo not shown) [Comparison 1, reference compound] | 50 (≈ 163 µM) | – | – | – | – | – |
| Cc1[nH]c2ccccc2c1C(=O)c1ccccc1 [Comparison 2, reference compound] | 5 (≈ 21.3 µM) | – | – | – | – | – |
| COCCn1c(C)c(C(=O)c2ccccc2)c2ccccc21 [Comparison 4, reference compound] | – | 45.5 | 7.1 | 38 | 7.6 | – |
| Cc1[nH]c2ccccc2c1C(=O)c1ccc(Cl)cc1 [Comparison 6, reference compound] | – | 12.3 | 6 | – | – | inhibition at 10 mg/kg ([3]; oral dosage 10 mg/kg, 5 µg/ml collagen floating solution, blood taken 1 hour after administration, read-out: Rate of inhibition of platelet aggregation, Collagen, After 1 hour): 36%; inhibition at 10 mg/kg ([3]; oral dosage 10 mg/kg, 5 µg/ml collagen floating solution, blood taken 4 hours after administration, read-out: Rate of inhibition of platelet aggregation, Collagen, After 4 hours): 28.9% |
